Reference: the supplement of paper PMC11061612

Tests used:
Venetoclax = compound: CC1(C)CCC(CN2CCN(c3ccc(C(=O)NS(=O)(=O)c4ccc(NCC5CCOCC5)c([N+](=O)[O-])c4)c(Oc4cnc5[nH]ccc5c4)c3)CC2)=C(c2ccc(Cl)cc2)C1 [Venetoclax]; details: max 1 µM
How it was run: (§1)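 Cancer cell lines were dosed for 72 hours (final DMSO typically 0.2%) after 24 hours at 37°C and 5% CO2 in 1536-well plates containing 7.5 μl DMEM/F12 or RPMI with 10% FBS. Viability came from CellTiter-Glo 2.0 luminescence, scaled between blank-well and DMSO-well means, and dose responses were fitted to a two-parameter logistic curve with a non-linear mixed effects model. The single-agent IC50 was obtained from this fit.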

Selumetinib = compound: Cn1cnc2c(F)c(Nc3ccc(Br)cc3Cl)c(C(=O)NOCCO)cc21 [Selumetinib]; details: max 10 µM
How it was run: as §1

Taselisib = compound: Cc1nc(-c2cn3c(n2)-c2ccc(-c4cnn(C(C)(C)C(N)=O)c4)cc2OCC3)n(C(C)C)n1 [Taselisib]; details: max 10 µM
How it was run: as §1

Trametinib = compound: CC(=O)Nc1cccc(-n2c(=O)n(C3CC3)c(=O)c3c(Nc4ccc(I)cc4F)n(C)c(=O)c(C)c32)c1 [Trametinib]; details: max 1 µM
How it was run: as §1

Savolitinib = compound: C[C@@H](c1ccc2nccn2c1)n1nnc2ncc(-c3cnn(C)c3)nc21 [Savolitinib]; details: max 1 µM
How it was run: as §1

Doxorubicin = compound: COc1cccc2c1C(=O)c1c(O)c3c(c(O)c1C2=O)C[C@@](O)(C(=O)CO)C[C@@H]3O[C@H]1C[C@H](N)[C@H](O)[C@H](C)O1 [Doxorubicin]; details: max 1 µM
How it was run: as §1

Alisertib = compound: COc1cc(Nc2ncc3c(n2)-c2ccc(Cl)cc2C(c2c(F)cccc2OC)=NC3)ccc1C(=O)O [Alisertib]; details: max 10 µM
How it was run: as §1

AZD1390 = compound: CC(C)n1c(=O)n(C)c2cnc3cc(F)c(-c4ccc(OCCCN5CCCCC5)nc4)cc3c21 [AZD1390]; details: max 0.3 µM
How it was run: as §1

Gefitinib = compound: COc1cc2ncnc(Nc3ccc(F)c(Cl)c3)c2cc1OCCCN1CCOCC1 [Gefitinib]; details: max 10 µM
How it was run: as §1

Prexasertib = compound: COc1cccc(OCCCN)c1-c1cc(Nc2cnc(C#N)cn2)n[nH]1 [Prexasertib]; details: max 1 µM
How it was run: as §1

Lapatinib = compound: CS(=O)(=O)CCNCc1ccc(-c2ccc3ncnc(Nc4ccc(OCc5cccc(F)c5)c(Cl)c4)c3c2)o1 [Lapatinib]; details: max 10 µM
How it was run: as §1

SN-38 = compound: CCc1c2c(nc3ccc(O)cc13)-c1cc3c(c(=O)n1C2)COC(=O)[C@]3(O)CC [SN-38]; details: max 0.3 µM
How it was run: as §1

Crizotinib = compound: C[C@@H](Oc1cc(-c2cnn(C3CCNCC3)c2)cnc1N)c1c(Cl)ccc(F)c1Cl [Crizotinib]; details: max 10 µM
How it was run: as §1

Capivasertib = compound: C1CN(CCC1(C(=O)N[C@@H](CCO)C2=CC=C(C=C2)Cl)N)C3=NC=NC4=C3C=CN4 [Capivasertib]; details: max 10 µM
How it was run: as §1

Palbociclib = compound: CC(=O)c1c(C)c2cnc(Nc3ccc(N4CCNCC4)cn3)nc2n(C2CCCC2)c1=O [Palbociclib]; details: max 10 µM
How it was run: as §1

AZD8186 = compound: C[C@@H](Nc1cc(F)cc(F)c1)c1cc(C(=O)N(C)C)cc2c(=O)cc(N3CCOCC3)oc12 [AZD8186]; details: max 3 µM
How it was run: as §1

AZD0156 = compound: CN(C)CCCOc1ccc(-c2ccc3ncc4c(c3c2)n(C2CCOCC2)c(=O)n4C)cn1 [AZD0156]; details: max 3 µM
How it was run: as §1

AZD5153 = compound: COc1nnc2ccc(N3CCC(c4ccc(OCCN5CCN(C)C(=O)[C@H]5C)cc4)CC3)nn12 [AZD5153]; details: max 1 µM
How it was run: as §1

Olaparib = compound: O=C(c1cc(Cc2n[nH]c(=O)c3ccccc23)ccc1F)N1CCN(C(=O)C2CC2)CC1 [Olaparib]; details: max 10 µM
How it was run: as §1

SG3199 = compound: CC1=CN2[C@@H](C1)C=NC3=CC(=C(C=C3C2=O)OC)OCCCCCOC4=C(C=C5C(=C4)N=C[C@@H]6CC(=CN6C5=O)C)OC [SG3199]; details: max 0.001 µM
How it was run: as §1

AZD6738 = compound: C[C@@H]1COCCN1C2=NC(=NC(=C2)C3(CC3)[S@](=N)(=O)C)C4=C5C=CNC5=NC=C4 [AZD6738]; details: max 10 µM
How it was run: as §1

AZD5991 = compound: Cc1c2c(nn1C)CSCc1cc(n(C)n1)CSc1cc(c3ccccc3c1)OCCCc1c(C(=O)O)n(C)c3c-2c(Cl)ccc13 [AZD5991]; details: max 1 µM
How it was run: as §1

Dasatinib = compound: CC1=C(C(=CC=C1)Cl)NC(=O)C2=CN=C(S2)NC3=CC(=NC(=N3)C)N4CCN(CC4)CCO [Dasatinib]; details: max 2 µM
How it was run: as §1

AZD2811 = compound: CCN(CCO)CCCOc1ccc2c(Nc3cc(CC(=O)Nc4cccc(F)c4)[nH]n3)ncnc2c1 [AZD2811]; details: max 1 µM
How it was run: as §1

AZD4320 = compound: CN(CC[C@H](CSC1=CC=CC=C1)NC2=C(C=C(C=C2)S(=O)(=O)NC(=O)C3=CC=C(C=C3)N4CCC(CC4)[C@H](C5=CC=CC=C5C6=CC=C(C=C6)Cl)O)S(=O)(=O)C(F)(F)F)CCO [AZD4320]; details: max 1 µM
How it was run: as §1

AZD7648 = compound: Cc1cc2ncnn2cc1Nc1ncc2c(n1)n(C1CCOCC1)c(=O)n2C [AZD7648]; details: max 10 µM
How it was run: as §1

AZD1775 = compound: C=CCn1c(=O)c2cnc(Nc3ccc(N4CCN(C)CC4)cc3)nc2n1-c1cccc(C(C)(C)O)n1 [AZD1775]; details: max 3 µM
How it was run: as §1

Cell Line | IC50, cell viability 72 h (Venetoclax) | IC50, cell viability 72 h (Selumetinib) | IC50, cell viability 72 h (Taselisib) | IC50, cell viability 72 h (Trametinib) | IC50, cell viability 72 h (Savolitinib) | IC50, cell viability 72 h (Doxorubicin) | IC50, cell viability 72 h (Alisertib) | IC50, cell viability 72 h (AZD1390) | IC50, cell viability 72 h (Gefitinib) | IC50, cell viability 72 h (Prexasertib) | IC50, cell viability 72 h (Lapatinib) | IC50, cell viability 72 h (SN-38) | IC50, cell viability 72 h (Crizotinib) | IC50, cell viability 72 h (Capivasertib) | IC50, cell viability 72 h (Palbociclib) | IC50, cell viability 72 h (AZD8186) | IC50, cell viability 72 h (AZD0156) | IC50, cell viability 72 h (AZD5153) | IC50, cell viability 72 h (Olaparib) | IC50, cell viability 72 h (SG3199) | IC50, cell viability 72 h (AZD6738) | IC50, cell viability 72 h (AZD5991) | IC50, cell viability 72 h (Dasatinib) | IC50, cell viability 72 h (AZD2811) | IC50, cell viability 72 h (AZD4320) | IC50, cell viability 72 h (AZD7648) | IC50, cell viability 72 h (AZD1775)
CA46 (Burkitt's Lymphoma) | > 1000 nM | > 10000 nM | > 10000 nM | > 1000 nM | > 1000 nM | > 1000 nM | > 10000 nM | > 300 nM | > 10000 nM | 142 nM | > 10000 nM | 135 nM | > 10000 nM | > 10000 nM | > 10000 nM | > 3000 nM | > 3000 nM | 232 nM | > 10000 nM | > 1 nM | > 10000 nM | > 1000 nM | > 2000 nM | > 1000 nM | > 1000 nM | > 10000 nM | 579 nM
CAL-27 (Oral Cavity Carcinoma) | > 1000 nM | 1890 nM | 854 nM | 129 nM | > 1000 nM | 927 nM | 443 nM | > 300 nM | 839 nM | 894 nM | 933 nM | 13.6 nM | > 10000 nM | > 10000 nM | > 10000 nM | > 3000 nM | > 3000 nM | 426 nM | > 10000 nM | > 1 nM | > 10000 nM | 413 nM | 431 nM | 608 nM | > 1000 nM | > 10000 nM | 1850 nM
CESS (Acute Myeloid Leukemia) | > 1000 nM | > 10000 nM | 7400 nM | > 1000 nM | > 1000 nM | 237 nM | 107 nM | > 300 nM | > 10000 nM | 12.2 nM | > 10000 nM | 6.15 nM | 4010 nM | 4120 nM | 8030 nM | 2140 nM | > 3000 nM | 297 nM | > 10000 nM | > 1 nM | 2080 nM | > 1000 nM | 1400 nM | > 1000 nM | > 1000 nM | > 10000 nM | 353 nM
COLO-792 (Melanoma) | > 1000 nM | 5940 nM | 1690 nM | 110 nM | > 1000 nM | > 1000 nM | > 10000 nM | > 300 nM | > 10000 nM | > 1000 nM | > 10000 nM | > 300 nM | 5380 nM | > 10000 nM | > 10000 nM | > 3000 nM | > 3000 nM | 512 nM | > 10000 nM | > 1 nM | > 10000 nM | 238 nM | > 2000 nM | > 1000 nM | 788 nM | > 10000 nM | 2290 nM
